What all share (test): Greenhouse test, post-emergence treatment
One test concerns POLCO. The class given is in vivo, Polygonum convolvulus. To be noted: application rate 1.0 kg/ha, scale 0 to 100. From the text: (§1) The culture containers used were plastic flowerpots containing loamy sand with approximately 3.0% of humus as the substrate. The seeds of the test plants were sown separately for each species.
(§2) For the post-emergence treatment, the test plants were first grown to a height of […], depending on the plant habit, and only then treated with the active ingredients which had been suspended or emulsified in water. For this purpose, the test plants were either sown directly and grown in the same containers, or they were first grown separately as seedlings and transplanted into the test containers a few days prior to treatment.
(§3) Depending on the species, the plants were kept at 10-25° C. or 20-35° C., respectively.
(§4) The test period extended over 2 to 4 weeks. During this time, the plants were tended, and their response to the individual treatments was evaluated.
(§5) Evaluation was carried out using a scale from 0 to 100. 100 means no emergence of the plants, or complete destruction of at least the aerial moieties, and 0 means no damage, or normal course of growth. A moderate herbicidal activity is given at values of at least 60, a good herbicidal activity is given at values of at least 70, and a very good herbicidal activity is given at values of at least 85.

In a further test the test system is AMARE. The test is classed as in vivo, Amaranthus retroflexus. To be noted: scale 0 to 100.
Description: as §1, §2, §3, §4, §5

The next test has as its system ECHCG. The test is classed as in vivo, Echinocloa crus-galli. To be noted: application rate 0.5 kg/ha, scale 0 to 100.
Description: as §1, §2, §3, §4, §5

The subject of another test is ABUTH. The test is classed as in vivo, Abutilon theophrasti. To be noted: application rate 0.5 kg/ha, scale 0 to 100.
Description: as §1, §2, §3, §4, §5

Take `Nc1nc(CC2CC2)nc(Nc2c(F)cc(F)cc2F)n1` [Example 4, 6-(cyclopropylmethyl)-N4-(2,4,6-trifluorophenyl)-1,3,5-triazine-2,4-diamine]: the values for the herbicidal activity result in the test on POLCO and in the test on AMARE (application rate 1.0 kg/ha) were “good herbicidal activity (a good herbicidal activity is given at values of at least 70)” and “very good herbicidal activity (a very good herbicidal activity is given at values of at least 85)”, respectively.

Take `CC(c1nc(N)nc(Nc2c(F)c(F)cc(F)c2F)n1)C1CC1` (centres unmarked) [Example 5, 6-(1-cyclopropylethyl)-N4-(2,3,5,6-tetrafluorophenyl)-1,3,5-triazine-2,4-diamine]: the herbicidal activity entry in the test with ECHCG, in the test on ABUTH and in the test with AMARE (application rate 0.5 kg/ha) was “very good herbicidal activity (a very good herbicidal activity is given at values of at least 85)” each time.
